Experiments:
[1] = tested on: summer wheat crop plant (TRZAS; cv. Triso); assay: Reduction in herbicide damage to summer wheat by safener, greenhouse post-emergence application, visual scoring; assay type: in vivo; set-up: key to Reduction in the damage by safener (difference): difference in % visual damage (0-100% scale vs untreated) due to safener
Protocol: (§1) The seeds of the crop plants to be treated are laid out in soil in woodfiber pots (diameter ˜ 7 cm), covered with soil and grown in a greenhouse under good conditions for germination and growth. The trial plants were treated at the early leaf stage (BBCH10-BBCH12).
The herbicides used (component B) were used in the following formulations: • B2.81: WP • B2.85: WP • B2.92: WP • Cinmethylin: EC • Clomazone: WP • Ethofumesate: WP • Flufenacet: SC • Pinoxaden: WP • Saflufenacil: WP • Bicyclopyrone: WP • Picloram: WP • Metazachlor: SC • Flumioxazin: WP • Glyphosate potassium salt: SL • Topramezone: WP
(§2) The dose of the respective herbicides was chosen here such that it causes an average degree of visually apparent damage (min. 20%, max. 75%) compared to untreated crop plants at the evaluation time on a control group of crop plants without safener treatment that were included in the same trial.
(§3) In the respective herbicide/safener combinations, the safeners (component A) in the form of wettable powders (WP) were added in the dose specified; in these cases, herbicide and safener are thus applied as a mixture.
(§4) Application was effected in each case on to the above-ground parts of the plant, at a water application rate corresponding to 300 l/ha and with addition of wetting agent (Mero, 1.5 l/h a).
In the applications that contained pinoxaden, bicyclopyrone or topramezone, the herbicidal effect was enhanced by additionally adding ammonium sulfate (2 kg/ha).
(§5) After application, the plants were cultivated under good growth conditions in a greenhouse. On account of the different mechanisms of action of the herbicides used, the damaging effect of the herbicides was fully manifested at different times depending on the herbicide, and this in turn forms the basis for assessment of the safener action in the mixtures. Therefore, the damage was scored visually, depending on the herbicide/mixture, between 11 and 21 days after application.
(§6) The damage effect was assessed visually on a scale of 0-100% by comparison with untreated control plants, and averaged over 2 repeats per treatment.

[2] = tested on: summer barley crop plant (HORVS: cv. Quench); assay: Reduction in herbicide damage to summer barley by safener, greenhouse post-emergence application, visual scoring; assay type: in vivo; set-up: key to Reduction in the damage by safener (difference): difference in % visual damage, 0-100% scale vs untreated plants
Protocol: as §1
The herbicides used (component B) were used in the following formulations: • B2.81: WP • B2.85: WP • B2.92: WP • Clomazone: WP • Ethofumesate: WP • Flufenacet: SC • Fluroxypyr: EC • Saflufenacil: WP • Thiencarbazone-methyl: WP • Iodosulfuron-methyl-sodium: WP • Bifenox: WP • Glyphosate potassium salt: SL • Topramezone: WP
as §2, §3, §4
In the applications that contained pinoxaden or topramezone, the herbicidal effect was enhanced by additionally adding ammonium sulfate (2 kg/ha).
as §5, §6

[3] = summer wheat (TRZAS), herbicide B1.2 (bicyclopyrone) 400 g a.i./ha + safener 100 g a.i./ha
[4] = summer wheat (TRZAS), herbicide B1.8 (pinoxaden) 200 g a.i./ha + safener 100 g a.i./ha
[5] = summer wheat (TRZAS), herbicide B2.28 (flufenacet) 2000 g a.i./ha + safener 100 g a.i./ha
[6] = summer wheat (TRZAS), herbicide B2.28 (flufenacet) 4000 g a.i./ha + safener 100 g a.i./ha
[7] = summer wheat (TRZAS), herbicide B2.38 (metazachlor) 4000 g a.i./ha + safener 100 g a.i./ha
[8] = summer wheat (TRZAS), herbicide B2.81 15 g a.i./ha + safener 100 g a.i./ha
[9] = summer wheat (TRZAS), herbicide B4.28 (topramezone) 300 g a.i./ha + safener 100 g a.i./ha
[10] = summer wheat (TRZAS), herbicide B5.13 (cinmethylin) 500 g a.i./ha + safener 100 g a.i./ha
[11] = summer wheat (TRZAS), herbicide B5.13 (cinmethylin) 1000 g a.i./ha + safener 100 g a.i./ha
[12] = summer wheat (TRZAS), herbicide B5.14 (clomazone) 200 g a.i./ha + safener 100 g a.i./ha
[13] = summer wheat (TRZAS), herbicide B5.21 (ethofumesate) 2000 g a.i./ha + safener 100 g a.i./ha
[14] = summer wheat (TRZAS), herbicide B5.26 (flumioxazin) 20 g a.i./ha + safener 100 g a.i./ha
[15] = summer wheat (TRZAS), herbicide B6.5 (picloram) 400 g a.i./ha + safener 100 g a.i./ha
[16] = summer wheat (TRZAS), herbicide B7.5 (glyphosate) 400 g a.i./ha + safener 100 g a.i./ha
[17] = summer barley (HORVS), herbicide B2.28 (flufenacet) 2000 g a.i./ha + safener 100 g a.i./ha
[18] = summer barley (HORVS), herbicide B2.28 (flufenacet) 4000 g a.i./ha + safener 100 g a.i./ha
[19] = summer barley (HORVS), herbicide B2.34 (iodosulfuron) 10 g a.i./ha + safener 100 g a.i./ha
[20] = summer barley (HORVS), herbicide B2.68 (thiencarbazone-methyl) 30 g a.i./ha + safener 100 g a.i./ha
[21] = summer barley (HORVS), herbicide B2.81 15 g a.i./ha + safener 100 g a.i./ha
[22] = summer barley (HORVS), herbicide B2.85 5 g a.i./ha + safener 100 g a.i./ha
[23] = summer barley (HORVS), herbicide B2.92 5 g a.i./ha + safener 100 g a.i./ha
[24] = summer barley (HORVS), herbicide B4.28 (topramezone) 300 g a.i./ha + safener 100 g a.i./ha
[25] = summer barley (HORVS), herbicide B5.21 (ethofumesate) 2000 g a.i./ha + safener 100 g a.i./ha
[26] = summer barley (HORVS), herbicide B6.4 (fluroxypyr) 500 g a.i./ha + safener 100 g a.i./ha
[27] = summer barley (HORVS), herbicide B7.5 (glyphosate) 400 g a.i./ha + safener 100 g a.i./ha
[28] = summer barley (HORVS), herbicide B8.6 (bifenox) 600 g a.i./ha + safener 100 g a.i./ha

## COC(=O)COc1nc(-c2ccc(Cl)cc2F)n(-c2ccc(F)cc2F)n1 [Compound A3, methyl {[5-(4-chloro-2-fluorophenyl)-1-(2,4-difluorophenyl)-1H-1,2,4-triazol-3-yl]oxy}acetate]
[1]; [3]
  Reduction in the damage by safener (difference): 25
  Reduction in the damage by safener (in %): 42%
[1]; [4]
  Reduction in the damage by safener (difference): 15
  Reduction in the damage by safener (in %): 43%
[1]; [5]
  Reduction in the damage by safener (difference): 30
  Reduction in the damage by safener (in %): 100%
[1]; [6]
  Reduction in the damage by safener (difference): 40
  Reduction in the damage by safener (in %): 100%
[1]; [7]
  Reduction in the damage by safener (difference): 30
  Reduction in the damage by safener (in %): 75%
[1]; [8]
  Reduction in the damage by safener (difference): 15
  Reduction in the damage by safener (in %): 21%
[1]; [9]
  Reduction in the damage by safener (difference): 20
  Reduction in the damage by safener (in %): 50%
[1]; [10]
  Reduction in the damage by safener (difference): 25
  Reduction in the damage by safener (in %): 100%
[1]; [11]
  Reduction in the damage by safener (difference): 25
  Reduction in the damage by safener (in %): 100%
[1]; [12]
  Reduction in the damage by safener (difference): 15
  Reduction in the damage by safener (in %): 38%
[1]; [13]
  Reduction in the damage by safener (difference): 70
  Reduction in the damage by safener (in %): 100%
[1]; [14]
  Reduction in the damage by safener (difference): 25
  Reduction in the damage by safener (in %): 42%
[1]; [15]
  Reduction in the damage by safener (difference): 20
  Reduction in the damage by safener (in %): 80%
[1]; [16]
  Reduction in the damage by safener (difference): 35
  Reduction in the damage by safener (in %): 78%
[2]; [17]
  Reduction in the damage by safener (difference): 15
  Reduction in the damage by safener (in %): 50%
[2]; [18]
  Reduction in the damage by safener (difference): 35
  Reduction in the damage by safener (in %): 70%
[2]; [19]
  Reduction in the damage by safener (difference): 25
  Reduction in the damage by safener (in %): 56%
[2]; [20]
  Reduction in the damage by safener (difference): 30
  Reduction in the damage by safener (in %): 100%
[2]; [21]
  Reduction in the damage by safener (difference): 70
  Reduction in the damage by safener (in %): 100%
[2]; [22]
  Reduction in the damage by safener (difference): 15
  Reduction in the damage by safener (in %): 25%
[2]; [23]
  Reduction in the damage by safener (difference): 30
  Reduction in the damage by safener (in %): 46%
[2]; [24]
  Reduction in the damage by safener (difference): 40
  Reduction in the damage by safener (in %): 80%
[2]; [25]
  Reduction in the damage by safener (difference): 60
  Reduction in the damage by safener (in %): 100%
[2]; [26]
  Reduction in the damage by safener (difference): 20
  Reduction in the damage by safener (in %): 100%
[2]; [27]
  Reduction in the damage by safener (difference): 50
  Reduction in the damage by safener (in %): 83%
[2]; [28]
  Reduction in the damage by safener (difference): 35
  Reduction in the damage by safener (in %): 88%

## C[C@]1(C(=O)N[C@H]2C=C[C@@H](C(=O)O)C2)CC(c2cc(F)cc(F)c2)=NO1 [Compound B2.92, (1S,4R)-4-[[(5R)-3-(3,5-difluorophenyl)-5-methyl-4H-isoxazole-5-carbonyl]amino]cyclopent-2-ene-1-carboxylic acid]
[1]; in vivo
  Damage to the plant by the herbicide (in %): 60%
[2]; in vivo
  Damage to the plant by the herbicide (in %): 65%

## topramezone [Compound B4.28, reference compound]
[1]; summer wheat (TRZAS), herbicide dose 300 g a.i./ha, without safener
  Damage to the plant by the herbicide (in %): 40%
[2]; summer barley (HORVS), herbicide dose 300 g a.i./ha, without safener
  Damage to the plant by the herbicide (in %): 50%

## CC1(C)CON(Cc2ccccc2Cl)C1=O [Compound B5.14, clomazone, reference compound]
[1]; in vivo
  Damage to the plant by the herbicide (in %): 40%
[2]; in vivo
  Damage to the plant by the herbicide (in %): 40%

## CCOC1Oc2ccc(OS(C)(=O)=O)cc2C1(C)C (stereo not drawn) [Compound B5.21, ethofumesate, reference compound]
[1]; summer wheat (TRZAS), herbicide dose 2000 g a.i./ha, without safener
  Damage to the plant by the herbicide (in %): 70%
[2]; summer barley (HORVS), herbicide dose 2000 g a.i./ha, without safener
  Damage to the plant by the herbicide (in %): 60%

## CC(C)N(C)S(=O)(=O)NC(=O)c1cc(-n2c(=O)cc(C(F)(F)F)n(C)c2=O)c(F)cc1Cl [Compound B9.10, saflufenacil, reference compound]
[1]; summer wheat (TRZAS), herbicide dose 10 g a.i./ha, without safener
  Damage to the plant by the herbicide (in %): 35%
[1]; summer wheat (TRZAS), herbicide dose 20 g a.i./ha, without safener
  Damage to the plant by the herbicide (in %): 40%
[2]; summer barley (HORVS), herbicide dose 20 g a.i./ha, without safener
  Damage to the plant by the herbicide (in %): 40%
